System: 379773-124-R-J2-PDC spheroid viability
Experiment: Anticancer human tumor 379773-124-R-J2-PDC patient-derived endometrial carcinoma cell line growth inhibition [POLQ]
Details: spheroids with HUVEC and MSC; for IC50: curve of first compound; for viability, T/C: stronger effect = lower value
Method in brief: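 Growth inhibition in 3D: complex spheroids (tumor PDC, HUVEC, MSC) treated with POLQ inhibitor combinations; where Cmax unknown, highest tested concentration 10 microM, except SN-38 at 1 microM.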

[1] = second compound 0.0316 µM, first compound 0.0316 µM
[2] = second compound 0.0316 µM, first compound 0.1 µM
[3] = second compound 0.0316 µM, first compound 0.316 µM
[4] = second compound 0.0316 µM, first compound 1 µM
[5] = second compound 0.0316 µM, first compound 3.16 µM
[6] = second compound 0.0316 µM, first compound 10 µM
[7] = second compound 0.1 µM, first compound 0.0316 µM
[8] = second compound 0.1 µM, first compound 0.1 µM
[9] = second compound 0.1 µM, first compound 0.316 µM
[10] = second compound 0.1 µM, first compound 1 µM
[11] = second compound 0.1 µM, first compound 3.16 µM
[12] = second compound 0.1 µM, first compound 10 µM
[13] = second compound 0.316 µM, first compound 0.0316 µM
[14] = second compound 0.316 µM, first compound 0.1 µM
[15] = second compound 0.316 µM, first compound 0.316 µM
[16] = second compound 0.316 µM, first compound 1 µM
[17] = second compound 0.316 µM, first compound 3.16 µM
[18] = second compound 0.316 µM, first compound 10 µM
[19] = second compound 1 µM, first compound 0.0316 µM
[20] = second compound 1 µM, first compound 0.1 µM
[21] = second compound 1 µM, first compound 0.316 µM
[22] = second compound 1 µM, first compound 1 µM
[23] = second compound 1 µM, first compound 3.16 µM
[24] = second compound 1 µM, first compound 10 µM
[25] = second compound 3.16 µM, first compound 0.0316 µM
[26] = second compound 3.16 µM, first compound 0.1 µM
[27] = second compound 3.16 µM, first compound 0.316 µM
[28] = second compound 3.16 µM, first compound 1 µM
[29] = second compound 3.16 µM, first compound 3.16 µM
[30] = second compound 3.16 µM, first compound 10 µM
[31] = second compound 10 µM, first compound 0.0316 µM
[32] = second compound 10 µM, first compound 0.1 µM
[33] = second compound 10 µM, first compound 0.316 µM
[34] = second compound 10 µM, first compound 1 µM
[35] = second compound 10 µM, first compound 3.16 µM
[36] = second compound 10 µM, first compound 10 µM
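Also: spheroids exposed to drugs for seven days before readout.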
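For viability, T/C in this document: percent viability relative to DMSO vehicle control taken as 100%.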

CC1COCCN1c1cc(C2(O)CC3CCC(C2)O3)c2cnn(-c3ccn[nH]3)c2n1 (stereo unspecified) + Cc1cccc(N(C)C(=O)C2C(O)CCN2c2nc(C)cc(C(F)(F)F)c2C#N)c1
IC50 (second compound 0.0316 µM): 0.0826 µM
IC50 (second compound 0.1 µM): 0.0926 µM
IC50 (second compound 0.316 µM): 0.0827 µM
IC50 (second compound 1 µM): 0.0961 µM
IC50 (second compound 3.16 µM): 0.0683 µM
IC50 (second compound 10 µM): 0.0681 µM
viability, T/C [1]: 75.6%
viability, T/C [2]: 45.4%
viability, T/C [3]: 14.1%
viability, T/C [4]: 12.7%
viability, T/C [5]: 7.12%
viability, T/C [6]: 2.45%
viability, T/C [7]: 82.8%
viability, T/C [8]: 48.1%
viability, T/C [9]: 15.9%
viability, T/C [10]: 11.5%
viability, T/C [11]: 7.15%
viability, T/C [12]: 2.96%
viability, T/C [13]: 84.9%
viability, T/C [14]: 43.2%
viability, T/C [15]: 11.8%
viability, T/C [16]: 9.19%
viability, T/C [17]: 6.89%
viability, T/C [18]: 2.54%
viability, T/C [19]: 80.8%
viability, T/C [20]: 49%
viability, T/C [21]: 12.2%
viability, T/C [22]: 10.9%
viability, T/C [23]: 7%
viability, T/C [24]: 2.13%
viability, T/C [25]: 70.6%
viability, T/C [26]: 40.2%
viability, T/C [27]: 15.1%
viability, T/C [28]: 9.34%
viability, T/C [29]: 7.31%
viability, T/C [30]: 2.13%
viability, T/C [31]: 68.3%
viability, T/C [32]: 41.5%
viability, T/C [33]: 15.1%
viability, T/C [34]: 10.8%
viability, T/C [35]: 7.1%
viability, T/C [36]: 1.64%

CCc1cc2c(N3CCc4c(cc(Cn5ccnc5)cc4-c4cn(C)nc4C(F)(F)F)C3=O)cc(C)nc2c(OC)n1 + Cc1cccc(N(C)C(=O)C2C(O)CCN2c2nc(C)cc(C(F)(F)F)c2C#N)c1
IC50 (second compound 0.0316 µM): > 10 µM
IC50 (second compound 0.1 µM): > 10 µM
IC50 (second compound 0.316 µM): > 10 µM
IC50 (second compound 1 µM): 9 µM
IC50 (second compound 3.16 µM): 6.79 µM
IC50 (second compound 10 µM): 1.93 µM
viability, T/C [1]: 77.2%
viability, T/C [2]: 80%
viability, T/C [3]: 61.9%
viability, T/C [4]: 62.4%
viability, T/C [5]: 64%
viability, T/C [6]: 48.9%
viability, T/C [7]: 92.7%
viability, T/C [8]: 69.5%
viability, T/C [9]: 56.1%
viability, T/C [10]: 58.4%
viability, T/C [11]: 55.4%
viability, T/C [12]: 46.9%
viability, T/C [13]: 78.9%
viability, T/C [14]: 72.9%
viability, T/C [15]: 67.8%
viability, T/C [16]: 59.4%
viability, T/C [17]: 60.8%
viability, T/C [18]: 51.4%
viability, T/C [19]: 77.3%
viability, T/C [20]: 68.2%
viability, T/C [21]: 68.1%
viability, T/C [22]: 59%
viability, T/C [23]: 62.4%
viability, T/C [24]: 46.6%
viability, T/C [25]: 76.4%
viability, T/C [26]: 73.6%
viability, T/C [27]: 61%
viability, T/C [28]: 53.9%
viability, T/C [29]: 51.9%
viability, T/C [30]: 48.1%
viability, T/C [31]: 70.7%
viability, T/C [32]: 64%
viability, T/C [33]: 61.5%
viability, T/C [34]: 49.2%
viability, T/C [35]: 50.9%
viability, T/C [36]: 41.2%

O=C(c1cc(Cc2n[nH]c(=O)c3ccccc23)ccc1F)N1CCN(C(=O)C2CC2)CC1 + COC1C(OC(N)=O)C(O)C(Oc2ccc3c(O)c(NC(=O)c4ccc(O)c(CC=C(C)C)c4)c(=O)oc3c2C)OC1(C)C
IC50 (second compound 0.0316 µM): 6.65 µM
IC50 (second compound 0.1 µM): 9.68 µM
IC50 (second compound 0.316 µM): 8.28 µM
IC50 (second compound 1 µM): 7.63 µM
IC50 (second compound 3.16 µM): 9.21 µM
IC50 (second compound 10 µM): 9.44 µM
viability, T/C [1]: 87.3%
viability, T/C [2]: 80.7%
viability, T/C [3]: 88.5%
viability, T/C [4]: 82.4%
viability, T/C [5]: 71.2%
viability, T/C [6]: 38.2%
viability, T/C [7]: 92.5%
viability, T/C [8]: 76.6%
viability, T/C [9]: 86.9%
viability, T/C [10]: 81.4%
viability, T/C [11]: 88.1%
viability, T/C [12]: 48.9%
viability, T/C [13]: 82.4%
viability, T/C [14]: 91.8%
viability, T/C [15]: 88.1%
viability, T/C [16]: 85.8%
viability, T/C [17]: 74.8%
viability, T/C [18]: 44.7%
viability, T/C [19]: 85.1%
viability, T/C [20]: 80%
viability, T/C [21]: 78.3%
viability, T/C [22]: 84.4%
viability, T/C [23]: 72.2%
viability, T/C [24]: 42.8%
viability, T/C [25]: 80.2%
viability, T/C [26]: 82.8%
viability, T/C [27]: 76.5%
viability, T/C [28]: 73.2%
viability, T/C [29]: 73.3%
viability, T/C [30]: 48%
viability, T/C [31]: 70.5%
viability, T/C [32]: 78.8%
viability, T/C [33]: 74.1%
viability, T/C [34]: 72.7%
viability, T/C [35]: 73.5%
viability, T/C [36]: 48.8%

Reference: PubChem BioAssay AID1963848 (Molecular Pharmacology Branch, DTP, NCI, 2024)
